Measured values taken from US20240082281A1, “ANTI-INFLAMMATORY PHYTONUTRIENTS FOR USE IN THE TREATMENT OR PREVENTION OF SYNOVITIS” (SOCIÉTÉ DES PRODUITS NESTLÉ S.A., priority 2013, published 2024).

Experiments:
[1] = system: Dunkin-Hartley guinea pigs; test: Spontaneous osteoarthritis in Dunkin-Hartley guinea pigs: histological OA score and synovial score (OARSI); type: in vivo, guinea pig; conditions: in diet 31 weeks (oleuropein 0.025%, rutin 0.5%, curcumin 0.25%); week 35; vs control group; p<0.01
Protocol: An in vivo study of spontaneous development of osteoarthritis in Dunkin-Hartley guinea pigs was performed. Sixty-five male Dunkin-Hartley guinea-pigs aged 3 weeks were obtained from Charles River Laboratories (Paris). Animals were housed 5 per cage in solid bottom cages and fed with standard guinea-pig diet and water ad libitum. All animals were allowed one week for acclimatization to housing conditions prior to phytonutrients administration. PVC pipes were added to the cages to improve housing conditions and minimize stress.
Substantially purified oleuropein (>90%) was purchased from Extrasynthese (Genay, France). Substantially purified rutin (>94%) was purchased from Sigma-Aldrich (Buchs, Switzerland).
Oleuropein, rutin and curcumin were integrated in the diet. […] Food intake was controlled at W9, W15, W21, W26 and W34 by weighing daily quantities of food added and remaining. […]
Paraffin embedded right knees were cut with a microtome (Leica) in 6 μm sections, in the central area not covered by meniscus, following the Cushin plane, as recommended by OARSI. […] Each compartment of the section (tibial median, tibial lateral, femoral median and femoral lateral) was scored by two blinded trained experts following OARSI recommendation and to assess the global cartilage score, each compartment score was added. […]
The results (mean±SD) were calculated for each parameter. […]

PGE2 = PGE2 in guinea pig serum by competitive ELISA; type: in vivo; conditions: in diet 31 weeks; week 35; vs control group
Protocol: 6 h fasting blood was obtained in the morning, under ketamine/xylazine tranquilization, at the superficial veins at the ears, each 6 weeks: W4 (=TO), W10, W16, W22, W28. At W35, blood was collected by intracardiac puncture just before euthanasia, under general anesthesia.
PGE2 was measured in guinea pig serum using a competitive ELISA kit (Arbor Assays, USA).
The results (mean±SD) were calculated for each parameter. Following a normality test, a parametric ANOVA with Dunnett's post-test or Pearson correlation was performed on all the experiments. *p<0.05; **<0.01; ***p<0.001.

COX-2 = COX-2 mRNA expression (real-time PCR, relative to GAPDH) in bovine primary chondrocytes in alginate beads; type: cell-based, Bos Taurus; conditions: 1.5 μM each, 3 days
Protocol: (§1) An in vitro study of bovine primary chondrocytes in alginate beads was performed. Substantially purified oleuropein (>98%) was purchased from Extrasynthese (Genay, France). Substantially purified hydroxytyrosol (>98%) was purchased from Extrasynthese (Genay, France). Substantially purified quercetin (>97%) was purchased from HWI Analytik GmbH (Ruelzheim, Germany).
(§2) The foot of a young cow was washed to remove soil. The skin was removed from the foot. The articulation was opened transversally. Intra articular ligaments were transected. The opened articulation was washed with phosphate buffered saline. With a scalpel blade, full thickness slices of cartilage were dissected out and collected in DMEM high glucose with 10 mM Hepes and 1% Penicillin-Streptomycin. Slices of cartilage were washed in DMEM high glucose with 10 mM Hepes and 1% Penicillin-Streptomycin. […]
(§3) Total RNA was isolated from a pool of 40 beads and isolated using RNeasy kit from Qiagen. cDNA was obtained by reverse transcription of RNA with the Primescript 1st strand cDNA Synthesis kit from Takara. mRNA expression of ADAMTS-5, COX-2, MMP-13 and GAPDH were quantified in real-time PCR (SYBR Green).
(§4) Data were expressed as fold change in gene expression compared to negative control (cells cultured in complete medium).
(§5) Data was expressed as median±S.E.Median (2 experiments of 3 replicates each). […]

ADAMTS-5 = ADAMTS-5 mRNA expression (real-time PCR, relative to GAPDH) in bovine primary chondrocytes in alginate beads; type: cell-based, Bos Taurus; conditions: 1.5 μM each, 3 days
Protocol: as §1, §2, §3, §4, §5

MMP-13 = MMP-13 mRNA expression (real-time PCR, relative to GAPDH) in bovine primary chondrocytes in alginate beads; type: cell-based, Bos Taurus; conditions: 1.5 μM each, 3 days
Protocol: as §1, §2, §3, §4, §5

[2] = system: Primary osteoblasts from the calvaria of newborn Wistar rats; test: Alkaline phosphatase (ALP) activity of primary osteoblasts; type: cell-based, rat; conditions: day 15; 1 μM OLP, 1 μM HTy, 10^−9 M 1,25(OH)2D3; vs C−
Protocol: Alkaline phosphatase activity of osteoblasts and potentiation of effect by vitamin D were investigated. Primary osteoblasts were isolated from the calvaria of newborn Wistar rats by enzymatic digestion as described by […] et al. in 2004. During all experiments, cells were maintained in α-minimal essential medium with 10% heat-inactivated fetal bovine serum and 1% penicillin/streptomycin under conditions of 5% CO2 and 37° C. Cells were seeded on Coll-1-coated 96-well plates at a density of 3500 cells/well or in 24-well plates at a density of 3×10^4 cells/well and cultured for 2 days in α-MEM to reach confluence. Cells were then exposed to different conditions: minimal medium (C-), minimal medium containing 50 μg/ml ascorbic acid, 5 mM β-glycerophosphate (C+; optimized medium), and minimal medium supplemented with 1 μM oleuropein (OLP) and/or 1 μM hydroxytyrosol (HTy) and/or 10^-9 M 1,25 dihydroxivitamin […] dissolved in dimethylsulfoxide (DMSO) and 1,25(OH)2D3 was dissolved in ethanol. […] Enzymatic activity of alkaline phosphatase (ALP) was measured kinetically on Treatment Days 0, 5, 9, 12 and 15. […] Absorbance was measured at 405 nm and 30° C., and every 2 min 30 s for 30 min using a VarioSklan Flash microplate reader. ALP activity was expressed as micromoles of p-NPP per hour per milligram of protein. […] Data were expressed as mean±SEM. […]. […]

[3] = disease conditions (presence of IL1a 10 ng/ml), vs IL1a
[4] = normal conditions (absence of IL1a), vs CTL−

COc1cc(/C=C/C(=O)CC(=O)/C=C/c2ccc(O)c(OC)c2)ccc1O [curcumin]
total OA score (histological cartilage score) [1]: decreasing cartilage degradation and histological OA score
PGE2 levels in plasma/serum (PGE2): only non-significant effect

O=c1c(O)c(-c2ccc(O)c(O)c2)oc2cc(O)cc(O)c12 [quercetin]
COX-2 mRNA expression relative to GAPDH (COX-2; [3]): decrease expression of COX-2
COX-2 mRNA expression relative to GAPDH (COX-2; [4]): can reduce expression of COX-2
ADAMTS-5 mRNA expression relative to GAPDH (ADAMTS-5; [3]): decrease expression of ADAMTS-5
ADAMTS-5 mRNA expression relative to GAPDH (ADAMTS-5; [4]): decrease expression of ADAMTS-5
MMP-13 mRNA expression relative to GAPDH (MMP-13; [3]): decrease expression of MMP-13
MMP-13 mRNA expression relative to GAPDH (MMP-13; [4]): decrease expression of MMP-13

C=C1/C(=C\C=C2/CCC[C@]3(C)[C@@H]([C@H](C)CCCC(C)(C)O)CC[C@@H]23)C[C@@H](O)C[C@@H]1O [vitamin D3, 1,25 dihydroxivitamin D3]
alkaline phosphatase (ALP) activity / osteoblast activity [2]: small but statistically significant increase
